These results are taken from US9517221B2, “(2R)-2-propyloctanoic acid for functional brain disease” (ONO PHARMACEUTICAL CO., LTD., priority 2006, dated 2016).

In assay [1] the test system is olfactory bulbectomized rats. Nature of the assay: Hyperemotional reactivity (hyperemotional score) of olfactory bulbectomized rats. The class given is in vivo, rat. Set-up: key to Hyperemotional score (mean ± S. E.), One day administration, Before administration / Hyperemotional score (mean ± S. E.), One day administration, After administration / Hyperemotional score (mean ± S. E.), Seven days administration, Before administration / Hyperemotional score (mean ± S. E.), Seven days administration, After administration: irritability score per Gomita et al. (1983) criteria. Here is the method: SPF rats (Crlj: WI) were used in the test. The animal for olfactory bulbectomy was anesthetized with pentobarbital sodium (Nembutal R Injection, Dainippon Pharmaceutical, dose: 1 mL/kg (intraperitoneal administration)), and the head was fixed using a brain stereotaxic apparatus (ASI Instruments, Inc., NARISHIGE). After incising the head skin, holes are opened at right and left olfactory bulb regions of the skull using a dental drill (manufactured by MINITOR), and the right and left olfactory bulbs were removed by sucking them using an aspirator connected to a tip-removed oral sonde, and the head skin was stitched thereafter. In this connection, in the case of the animals for sham-operation, anesthesia, brain fixation and head skin incision were carried out in the same manner as in the animals for olfactory bulbectomy, holes are opened at right and left olfactory bulb regions of the skull and the head skin was stitched without carrying out suction removal of the olfactory bulbs. The rats after olfactory bulbectomy were put into a series of five stainless steel cages, each of which was partitioned into two parts with an acrylic board for individual rearing space, and individually reared under a dark condition. The rats were subjected to the following tests of (2) and (3).
• (a) Sham-operation group (12 animals); • (b) Vehicle control group (12 animals); • (c) 3 mg/kg administration group (12 animals) of (2R)-2-propyloctanoic acid; • (d) 10 mg/kg administration group (12 animals) of (2R)-2-propyloctanoic acid; • (e) 10 mg/kg administration group (12 animals) of Milnacipran hydrochloride. [Drug Administration]
As shown below, drug solution or vehicle was administered once a day for 8 days, a total of 8 times, at a respective liquid dose of 5 mL/kg. • (a) Sham-operation group: vehicle (0.1% by volume Tween 80) aqueous solution; • (b) Vehicle control group: vehicle (0.1% by volume Tween 80) aqueous solution; • (c) 3 mg/kg administration group of (2R)-2-propyloctanoic acid: a drug solution in which (2R)-2-propyloctanoic acid was prepared to be 0.6 mg/mL with the vehicle; • (d) 10 mg/kg administration group of (2R)-2-propyloctanoic acid: a drug solution in which (2R)-2-propyloctanoic acid was prepared to be 2.0 mg/mL with the vehicle; • (e) 10 mg/kg administration group of milnacipran hydrochloride: a drug solution in which Milnacipran hydrochloride was prepared to be 2.3 mg/mL with the vehicle (Milnacipran itself is included in 2.0 mg/mL). (2) Examination of the Activity for Hyperemotional Reactivity <Evaluation Method>
Evaluation of the hyperemotional reactivity was carried out (1) before the grouping, (2) from 1 hour to 1 hour and 10 minutes after administration of the 1 day drug administration, (3) before administration of the 7 days administration and (4) from 1 hour to 1 hour and 10 minutes after the administration (a total of 4 times), by scoring the degree of irritability once a rat in accordance with the following evaluation criteria of hyperemotional reactivity (hyperemotional score: prepared based on the method of Gomita et al. (Folia Pharmacologica Japonica, 82, 267, 1983). Additionally, all of the conditions of the evaluation were shot and recorded using a video camera (SSC-DC430, SONY) and handled as reference data.

The subject of assay [2] is olfactory bulbectomized rats. The assay can be described thus: Anxiolytic behavior on elevated plus maze of olfactory bulbectomized rats. Conditions: dose 10 mg/kg once a day for 8 days; 5 minutes test 1 hour after 8 days administration. Type of assay: in vivo, rat. The procedure:
SPF rats (Crlj: WI) were used in the test. The animal for olfactory bulbectomy was anesthetized with pentobarbital sodium (Nembutal R Injection, Dainippon Pharmaceutical, dose: 1 mL/kg (intraperitoneal administration)), and the head was fixed using a brain stereotaxic apparatus (ASI Instruments, Inc., NARISHIGE). After incising the head skin, holes are opened at right and left olfactory bulb regions of the skull using a dental drill (manufactured by […]), and the right and left olfactory bulbs were removed by sucking them using an aspirator connected to a tip-removed oral sonde, and the head skin was stitched thereafter. In this connection, in the case of the animals for sham-operation, anesthesia, brain fixation and head skin incision were carried out in the same manner as in the animals for olfactory bulbectomy, holes are opened at right and left olfactory bulb regions of the skull and the head skin was stitched without carrying out suction removal of the olfactory bulbs. The rats after olfactory bulbectomy were put into a series of five stainless steel cages, each of which was partitioned into two parts with an acrylic board for individual rearing space, and individually reared under a dark condition. The rats were subjected to the following tests of (2) and (3). • (a) Sham-operation group (12 animals); • (b) Vehicle control group (12 animals); • (c) 3 mg/kg administration group (12 animals) of (2R)-2-propyloctanoic acid; • (d) 10 mg/kg administration group (12 animals) of (2R)-2-propyloctanoic acid; • (e) 10 mg/kg administration group (12 animals) of Milnacipran hydrochloride. [Drug Administration] As shown below, drug solution or vehicle was administered once a day for 8 days, a total of 8 times, at a respective liquid dose of 5 mL/kg. • (a) Sham-operation group: vehicle (0.1% by volume Tween 80) aqueous solution; • (b) Vehicle control group: vehicle (0.1% by volume Tween 80) aqueous solution; • (c) 3 mg/kg administration group of (2R)-2-propyloctanoic acid: a drug solution in which (2R)-2-propyloctanoic acid was prepared to be 0.6 mg/mL with the vehicle; • (d) 10 mg/kg administration group of (2R)-2-propyloctanoic acid: a drug solution in which (2R)-2-propyloctanoic acid was prepared to be 2.0 mg/mL with the vehicle; • (e) 10 mg/kg administration group of milnacipran hydrochloride: a drug solution in which Milnacipran hydrochloride was prepared to be 2.3 mg/mL with the vehicle (Milnacipran itself is included in 2.0 mg/mL). (2) Examination of the Activity for Hyperemotional Reactivity <Evaluation Method> Evaluation of the anxiolytic behavior on an elevated plus maze was carried out once per animal for 5 minutes from 1 hour to 1 hour and 10 minutes after 8 days of the administration, in accordance with the following method. Each animal was softly put on a platform of elevated plus maze which is described later, toward one of the open arms. Thereafter, behavior of the animal was shot using a video camera (CCD-DC430, SONY) set up the elevated plus maze, and the images were analyzed by a video image behavior analyzing device (Etho Vision, manufactured by Noldus). Additionally, the images from the video camera were recorded and handled as reference data. In this connection, when the animal fell, it was regarded as staying on the open arm, and the animal was quickly returned to the place or the open arm where it was present just before the falling. The evaluation was carried out on the respective items shown by A to H (A: frequency of approach to the open arm, B: frequency of approach to the closed arm, C: frequency of approach to the platform, D: stayed time (second) on the open arm, E: stayed time (second) on the closed arm, F: stayed time (second) on the platform, G: defecation frequency on the open arm, platform and closed arm, and H: urination frequency on the open arm, platform and closed arm), by measuring A to F using the video image behavior analyzing device, and by measuring G and H after completion of the measurement. […]

Structures can show the parent of a compound that is named as a salt.

Consider `CCN(CC)C(=O)C1(c2ccccc2)CC1CN` (stereo not drawn) [Milnacipran hydrochloride, reference compound], for which, in assay [1] (dose 10 mg/kg once a day, 1 hour to 1 hour 10 minutes after 7 days administration), the “Hyperemotional score (mean ± S. E.), Seven days administration, After administration” value amounted to 7.6 ± 0.8. Moreover, the “Hyperemotional score (mean ± S. E.), Seven days administration, Before administration” value in assay [1] (dose 10 mg/kg once a day, before administration of the 7 days administration) is 10.2 ± 1.1. Also, in assay [1] (dose 10 mg/kg, 1 hour to 1 hour 10 minutes after 1 day administration), the “Hyperemotional score (mean ± S. E.), One day administration, After administration” value was 14.3 ± 1.0. For the same molecule, in assay [1] (dose 10 mg/kg, baseline before grouping, 12 animals), the “Hyperemotional score (mean ± S. E.), One day administration, Before administration” value stood at 20.0 ± 0.0. For the same molecule, in assay [2], the “Time (seconds) stayed on closed arm (mean ± S. E.)” value is 196.0 ± 19.8 s and the “Time (seconds) stayed on open arm (mean ± S. E.)” value worked out at 72.7 ± 18.3 s.
